According to patent publication US9023853B2, “Janus kinase 2 (JAK2) inhibitor for the treatment of lupus” (Cephalon, Inc., priority 2010, dated 2015):

Key:
Format in all cases: in vivo, mouse
[1] = tested on: anti-Smith antigen antibodies; experiment: Serum anti-Smith antigen ANA ELISA in NZM mice; details: p<0.05
From the text: The measurement of anti-dsDNA and anti-Smith antigen antibodies was done by an in-house generated custom ELISA assay. Chromatin coated plates were purchased from Inova Diagnostics, Inc. Purified bovine thymus dsDNA (Sigma, St. Louis, […].) or purified bovine Smith antigen (GenWay, San Diego, Calif.) were used as coating antigen for the detection of anti-dsDNA and anti-Smith Ag antibodies respectively. Coated plates were washed with Borate Sulfate Saline (BSS) and blocked with BSS containing 1% Bovine Serum Albumin (BSA) and 0.1% Tween-20 detergent. Standard curves were generated using mouse anti-chromatin antibody (Sigma, 2B1) or 25 week old MRL/lpr serum. Mouse anti-dsDNA antibody (Abcam, Cambridge, Mass.), or mouse anti-Smith antigen antibody (Abcam) were used as standards for each assay. […] Developed plates were read using a Victor-X4 spectrophotometer reading at […] with a reference wavelength of 570 nm. […]
Age mated, female, NZM or NZW/LacJ, mice were matured for the study of lupus nephritis for a total of 7 months or 210 days at which time urine was collected for proteinuria detection. Mice with 0.5-1.0 mg/ml of urine protein as determined by an optical density-based total protein precipitation assay and cross-checked for 30-300 mg/dl of protein as determined by a stick assay were considered proteinuria positive and selected for study entry. […]

MRL/lpr mice = experiment: Renal histopathology kidney IC-GN scoring in MRL/lpr mice; details: for Glomerular Cellularity / Glomerular Necrosis / Glomerulosclerosis / Interstitial Fibrosis / Interstitial Inflitration / Tubular Atrophy / Vasculitis: MRL/lpr kidney score (grade 0-5), mean
Experimental: Kidney stains used for histological analyses included hematoxylin and eosin (H&E), Periodic Acid Schiff (PAS) and Trichrome stains (Wistar Institute, Philadelphia, Pa.). All 3 stained sections were used by the pathologist for scoring purposes. All histological scoring was performed blinded and by an independent board certified veterinary medical pathologist (Julie […]; University of Pennsylvania). Multiple stains were used to determine score values. Images in FIGS. 8, 19 and 20 show worst affected area of section selected blindly by the pathologist. Kidney IC-GN Scoring Method (Smith, Dong et al. 2007): 1. Glomerular cellularity-Score 1-5: Null, low, moderate, high, severe […] Glomerular necrosis-Score 1-5: Null, low, moderate, high, severe […] Glomerulosclerosis-Score 1-5: Null, low, moderate, high, severe […] Null, low, moderate, high, severe 5. […] Null, low, moderate, high, severe 6. […] Null, low, moderate, high, severe 7. […] Null, low, moderate, high, severe Specific Pathologist Definitions: • Necrosis was defined by the presence of nuclear debris/pyknosis within the glomerular tuft indicative of “necrosis.” In many samples, this was a very mild, rare finding within only a very few segments of the glomerular tuft. Also considered effacement of the glomerular tuft by PAS positive, Trichrome negative material necrosis. • Glomerular sclerosis was defined by increased fibroplasia or fibrosis within the glomerular tuft or capsule. […] Most of the vascular changes were mild and could be considered “arteriosclerosis” characterized by proliferation of the smooth muscle cells, and hyalinization of the extracellular matrix. This change may reflect hypertension secondary to glomerular pathology. In very few animals was there overt “vasculitis.” Most inflammatory changes were within the walls of the blood vessels, with little to no damage to the endothelium, and no overt hemorrhage/fibrin leakage. Many also have perivascular rims of fibroblasts. […] Mice were tracked on an individual basis.

IL-4 = experiment: Serum IL-4 in NZM mice
Experimental: For the processing of serum samples for cytokine analysis, frozen plasma at −80° C. was thawed on ice, vortexed, and centrifuged for 10 minutes to remove debris and aggregates. A total of 25-50 μL of serum was used for Luminex® assays following the manufacturer's instructions. Ten different mouse cytokines were measured using the mouse cytokine 10-plex bead kit (Invitrogen, Carlsbad, Calif., no. LMC0001). Briefly, filter plates (Millipore, Billerica, Mass., no. MAIPSWU10), were pre-wet with 200 μL of wash solution (kit component) and 25 μL of beads were added per well. […]
Age mated, female, NZM or NZW/LacJ, mice were matured for the study of lupus nephritis for a total of 7 months or 210 days at which time urine was collected for proteinuria detection. Mice with 0.5-1.0 mg/ml of urine protein as determined by an optical density-based total protein precipitation assay and cross-checked for 30-300 mg/dl of protein as determined by a stick assay were considered proteinuria positive and selected for study entry. […] End-stage lupus nephritis was evaluated by histopathology and scored by a board certified pathologist for the assessment of total renal damage in diseased animals using the scoring method described by Smith et al (Smith, Dong et al. 2007). […]

[2] = MRL/lpr mice, 100 mg/kg, p<0.01

CN1CCN(c2cccc(Nc3nc4c(-c5ccc(S(C)(=O)=O)cc5)cccn4n3)c2)CC1 [COMPOUND A, [8-(4-methanesulfonyl-phenyl)-[1,2,4]triazolo[1,5-a]pyridin-2-yl]-[3-(4-methyl-piperazin-1-yl)-phenyl]-amine]
anti-smith antigen ANAs ([1]; COMPOUND A treatment): significantly reduced
Glomerular Cellularity (MRL/lpr mice; COMPOUND A 30 mg/kg): 2.60
Glomerular Necrosis (MRL/lpr mice; COMPOUND A 30 mg/kg): 1.80
Glomerulosclerosis (MRL/lpr mice; COMPOUND A 30 mg/kg): 1.60
Interstitial Fibrosis (MRL/lpr mice; COMPOUND A 30 mg/kg): 1.60
Interstitial Inflitration (MRL/lpr mice; COMPOUND A 30 mg/kg): 2.20
Tubular Atrophy (MRL/lpr mice; COMPOUND A 30 mg/kg): 1.20
Vasculitis (MRL/lpr mice; COMPOUND A 30 mg/kg): 1.80
Glomerular Cellularity (MRL/lpr mice; COMPOUND A 55 mg/kg): 3.20
Glomerular Necrosis (MRL/lpr mice; COMPOUND A 55 mg/kg): 1.80
Glomerulosclerosis (MRL/lpr mice; COMPOUND A 55 mg/kg): 2.00
Interstitial Fibrosis (MRL/lpr mice; COMPOUND A 55 mg/kg): 1.20
Interstitial Inflitration (MRL/lpr mice; COMPOUND A 55 mg/kg): 2.00
Tubular Atrophy (MRL/lpr mice; COMPOUND A 55 mg/kg): 2.20
Vasculitis (MRL/lpr mice; COMPOUND A 55 mg/kg): 2.00
Glomerular Cellularity (MRL/lpr mice; COMPOUND A 100 mg/kg): 2.40
Glomerular Necrosis (MRL/lpr mice; COMPOUND A 100 mg/kg): 1.8
Glomerulosclerosis (MRL/lpr mice; COMPOUND A 100 mg/kg): 2.20
Interstitial Fibrosis (MRL/lpr mice; COMPOUND A 100 mg/kg): 1.40
Interstitial Inflitration (MRL/lpr mice; COMPOUND A 100 mg/kg): 1.80
Tubular Atrophy (MRL/lpr mice; COMPOUND A 100 mg/kg): 1.40
Vasculitis (MRL/lpr mice; COMPOUND A 100 mg/kg): 1.40
interstitial infiltration decrease vs vehicle (MRL/lpr mice; MRL/lpr mice, 55 mg/kg, p<0.05): 33.3%
glomerular cellularity decrease vs vehicle (MRL/lpr mice; [2]): 33.3%
interstitial infiltration decrease vs vehicle (MRL/lpr mice; [2]): 40%
vasculitis decrease vs vehicle (MRL/lpr mice; [2]): 46.1%
enlarged glomeruli and leukocytic infiltrations in renal sections (MRL/lpr mice; MRL/lpr mice, COMPOUND A treated animals at EOS, FIG. 8): absent
cellular infiltrations/glomerulonephritis and glomerular size in H&E stained renal sections (MRL/lpr mice; MRL/lpr mice, compared to dexamethasone and vehicle groups, FIG. 8): decreases in both cellular infiltrations/glomerulonephritis and glomerular size
serum IL-4 decrease compared to vehicle (IL-4; 55 mg/kg): 98.7%
serum IL-4 decrease compared to vehicle (IL-4; 100 mg/kg): 91.8%

O=P1(N(CCCl)CCCl)NCCCO1 (centres unmarked) [CTX, cyclophosphamide, reference compound]
anti-smith antigen ANAs ([1]; CTX 50 mg/kg once weekly ip): significantly reduced

C[C@@H]1C[C@H]2[C@@H]3CCC4=CC(=O)C=C[C@]4(C)[C@@]3(F)[C@@H](O)C[C@]2(C)[C@@]1(O)C(=O)CO [Dex, dexamethasone, reference compound]
Glomerular Cellularity (MRL/lpr mice; Dex 1.5 mg/kg): 3.00
Glomerular Necrosis (MRL/lpr mice; Dex 1.5 mg/kg): 2.00
Glomerulosclerosis (MRL/lpr mice; Dex 1.5 mg/kg): 2.00
Interstitial Fibrosis (MRL/lpr mice; Dex 1.5 mg/kg): 1.20
Interstitial Inflitration (MRL/lpr mice; Dex 1.5 mg/kg): 1.60
Tubular Atrophy (MRL/lpr mice; Dex 1.5 mg/kg): 1.20
Vasculitis (MRL/lpr mice; Dex 1.5 mg/kg): 1.40
